Experimental data reported in patent publication US9382254B2, “Compounds and pharmaceutical compositions thereof for the treatment of cystic fibrosis” (Galapagos NV, priority 2013, dated 2016).
pEC50: −log10 of the molar value.

Columns and labels:
CFTR ΔF508 mutant [1] = biological target: T1, CFTR ΔF508 mutant (Homo sapiens, UniProt P13569, DEL508-508); test: YFP-halide influx assay for the CFTR-ΔF508 mutation (384 well, FDSS/μCell); assay type: cell-based; conditions: CFBE41o- cells, CFTR-ΔF508, 1×D-PBS, fluorescence after 36 seconds
T1 construct: expressed in transfected cells; host or cells: CFBE41o- (adenoviral transduction)
In short: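 Potentiator read-out as 1−F/F0, F taken 36 s after iodide addition, EC50 fitted against compound concentration. Cells: CFBE41o- expressing ΔF508 CFTR plus halide-sensitive YFP via adenovirus, rescued by 27 °C for 24 h or 24 h modulator at 37 °C.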

CFTR ΔF508 mutant [2] = biological target: T1, CFTR ΔF508 mutant; test: YFP-halide influx assay for the CFTR-ΔF508 mutation, gluconate buffer; assay type: cell-based; conditions: CFBE41o- cells, forskolin 10.67 μM
In short: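 CFBE41o- cells adenovirally transduced with CFTR ΔF508 and YFP H148Q/I152L, then held 24 h at 27 °C or treated with CFTR modulator 24 h at 37 °C. I− quenching recorded for 7 s after injection; activity as 1-F/F0, EC50 from concentration plot.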

T1 sequence (P13569 with tags, fused parts or gaps DEL508-508): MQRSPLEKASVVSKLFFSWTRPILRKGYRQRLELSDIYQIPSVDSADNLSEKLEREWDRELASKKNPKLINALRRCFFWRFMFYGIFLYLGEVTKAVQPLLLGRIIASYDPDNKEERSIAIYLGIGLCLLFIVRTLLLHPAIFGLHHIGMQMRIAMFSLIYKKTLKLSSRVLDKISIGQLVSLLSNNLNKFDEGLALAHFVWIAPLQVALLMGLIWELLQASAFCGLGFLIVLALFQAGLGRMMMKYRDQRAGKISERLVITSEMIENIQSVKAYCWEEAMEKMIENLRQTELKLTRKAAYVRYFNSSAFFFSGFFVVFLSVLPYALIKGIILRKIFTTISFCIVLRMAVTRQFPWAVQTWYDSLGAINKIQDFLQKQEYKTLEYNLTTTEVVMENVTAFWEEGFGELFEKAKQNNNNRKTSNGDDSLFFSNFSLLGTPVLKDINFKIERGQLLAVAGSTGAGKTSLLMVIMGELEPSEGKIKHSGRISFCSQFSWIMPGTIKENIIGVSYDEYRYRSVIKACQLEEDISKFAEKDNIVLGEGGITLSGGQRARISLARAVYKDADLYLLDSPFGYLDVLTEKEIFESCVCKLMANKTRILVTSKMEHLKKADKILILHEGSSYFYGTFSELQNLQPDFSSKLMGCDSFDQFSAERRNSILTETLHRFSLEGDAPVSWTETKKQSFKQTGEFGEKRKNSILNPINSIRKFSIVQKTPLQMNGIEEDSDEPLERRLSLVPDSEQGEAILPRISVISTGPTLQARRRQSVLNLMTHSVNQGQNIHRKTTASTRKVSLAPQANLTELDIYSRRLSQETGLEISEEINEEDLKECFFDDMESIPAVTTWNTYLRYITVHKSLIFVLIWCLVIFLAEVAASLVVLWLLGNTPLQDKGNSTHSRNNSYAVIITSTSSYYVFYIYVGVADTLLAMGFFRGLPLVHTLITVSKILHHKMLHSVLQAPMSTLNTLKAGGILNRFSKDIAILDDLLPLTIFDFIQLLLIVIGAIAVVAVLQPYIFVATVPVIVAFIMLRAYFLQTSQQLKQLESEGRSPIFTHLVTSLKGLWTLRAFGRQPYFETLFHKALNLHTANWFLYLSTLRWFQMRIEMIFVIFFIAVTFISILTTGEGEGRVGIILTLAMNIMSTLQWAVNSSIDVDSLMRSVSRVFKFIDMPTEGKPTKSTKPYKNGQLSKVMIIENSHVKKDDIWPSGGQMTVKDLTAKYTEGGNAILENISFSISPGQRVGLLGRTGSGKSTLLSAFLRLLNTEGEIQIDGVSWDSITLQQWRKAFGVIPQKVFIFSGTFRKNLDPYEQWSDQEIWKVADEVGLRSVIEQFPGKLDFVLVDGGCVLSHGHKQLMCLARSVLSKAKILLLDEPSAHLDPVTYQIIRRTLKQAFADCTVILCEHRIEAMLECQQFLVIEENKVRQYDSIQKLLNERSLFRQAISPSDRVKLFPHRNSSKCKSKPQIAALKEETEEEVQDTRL

Row | Compound | pEC50 (CFTR ΔF508 mutant [1]) | pEC50 (CFTR ΔF508 mutant [2])
1 | Cc1ccc(C(=O)Nc2sc(S(=O)(=O)c3ccccc3)cc2C(N)=O)s1 [Compound 16, N-(3-carbamoyl-5-(phenylsulfonyl)thiophen-2-yl)-5-methylthiophene-2-carboxamide] | 6.73 | 7.00
2 | NC(=O)c1cc(S(=O)(=O)N2CCCCC2)sc1NC(=O)c1ccn[nH]1 [Compound 36, N-(3-carbamoyl-5-(piperidin-1-ylsulfonyl)thiophen-2-yl)-1H-pyrazole-3-carboxamide] | 7.88 | 7.03
3 | Cc1c(S(=O)(=O)c2ccccc2)sc(NC(=O)c2ccccc2F)c1C(N)=O [Compound 87, 2-(2-fluorobenzamido)-4-methyl-5-(phenylsulfonyl) thiophene-3-carboxamide] | 7.07 | 7.36
4 | CCc1cc(C(=O)Nc2sc(S(=O)(=O)c3ccccc3)cc2C(N)=O)n[nH]1 [Compound 95, N-(3-carbamoyl-5-(phenylsulfonyl)thiophen-2-yl)-5-ethyl-1H-pyrazole-3-carboxamide] | 7.00 | 7.00
5 | NC(=O)c1cc(S(=O)(=O)c2ccc(F)cc2)sc1NC(=O)c1ccn[nH]1 [Compound 109, N-(3-carbamoyl-5-(4-fluorophenylsulfonyl)thiophen-2-yl)-1H-pyrazole-3-carboxamide] | 7.54 | 7.54
6 | NC(=O)c1cc(S(=O)(=O)c2cccc(F)c2)sc1NC(=O)c1cc[nH]n1 [Compound 113, N-(3-carbamoyl-5-(3-fluorophenylsulfonyl)thiophen-2-yl)-1H-pyrazole-3-carboxamide] | 8.24 | 7.53
7 | CCc1cc(C(=O)Nc2sc(S(=O)(=O)c3cccc(F)c3)cc2C(N)=O)n[nH]1 [Compound 114, N-(3-carbamoyl-5-(3-fluorophenylsulfonyl)thiophen-2-yl)-5-ethyl-1H-pyrazole-3-carboxamide] | 6.99 | 7.04
8 | CCc1cc(C(=O)Nc2sc(S(=O)(=O)c3ccccc3F)cc2C(N)=O)n[nH]1 [Compound 116, N-(3-carbamoyl-5-(2-fluorophenylsulfonyl)thiophen-2-yl)-5-ethyl-1H-pyrazole-3-carboxamide] | 7.20 | 7.22
9 | NC(=O)c1cc(S(=O)(=O)c2ccc(F)c(F)c2)sc1NC(=O)c1cc[nH]n1 [Compound 118, N-(3-carbamoyl-5-(3,4-difluorophenylsulfonyl)thiophen-2-yl)-1H-pyrazole-3-carboxamide] | 8.02 | 7.44
10 | CN(C)C1CCN(S(=O)(=O)c2cc(C(N)=O)c(NC(=O)c3ccccc3F)s2)CC1 [Compound 174, 5-(4-(dimethylamino)piperidin-1-ylsulfonyl)-2-(2-fluorobenzamido) thiophene-3-carboxamide] |  | 5.62
11 | NC(=O)c1cc(S(=O)(=O)c2ccccn2)sc1NC(=O)c1ccccc1F [Compound 178, 2-(2-fluorobenzamido)-5-(pyridin-2-ylsulfonyl) thiophene-3-carboxamide] |  | 6.28
12 | Cc1ccccc1S(=O)(=O)c1cc(C(N)=O)c(NC(=O)c2ccccc2F)s1 [Compound 180, 2-(2-fluorobenzamido)-5-(o-tolylsulfonyl)thiophene-3-carboxamide] |  | 6.91
13 | COc1ccccc1S(=O)(=O)c1cc(C(N)=O)c(NC(=O)c2ccccc2F)s1 [Compound 181, 2-(2-fluorobenzamido)-5-(2-methoxyphenylsulfonyl) thiophene-3-carboxamide] |  | 6.84
14 | CN(CC(C)(C)C)S(=O)(=O)c1cc(C(N)=O)c(NC(=O)c2ccccc2F)s1 [Compound 184, 2-(2-fluorobenzamido)-5-(N-methyl-N-neopentylsulfamoyl) thiophene-3-carboxamide] |  | 6.17
15 | CN(CCC(F)(F)F)S(=O)(=O)c1cc(C(N)=O)c(NC(=O)c2ccccc2F)s1 [Compound 185, 2-(2-fluorobenzamido)-5-(N-methyl-N-(3,3,3-trifluoropropyl)sulfamoyl) thiophene-3-carboxamide] |  | 6.48
16 | CN(C)C1CN(S(=O)(=O)c2cc(C(N)=O)c(NC(=O)c3ccccc3F)s2)C1 [Compound 187, 5-(3-(dimethylamino)azetidin-1-ylsulfonyl)-2-(2-fluorobenzamido)thiophene-3-carboxamide] |  | 5.80
17 | NC(=O)c1cc(S(=O)(=O)N2CC3(COC3)C2)sc1NC(=O)c1ccccc1F [Compound 188, 5-(2-oxa-6-azaspiro[3.3]heptan-6-ylsulfonyl)-2-(2-fluorobenzamido) thiophene-3-carboxamide] |  | 5.68
18 | CN(C(c1ccccc1)C(F)(F)F)S(=O)(=O)c1cc(C(N)=O)c(NC(=O)c2cc[nH]n2)s1 (centres unmarked) [Compound 195, N-(3-carbamoyl-5-(N-methyl-N-(2,2,2-trifluoro-phenylethyl)sulfamoyl)thiophen-2-yl)-1H-pyrazole-3-carboxamide] |  | 6.59
19 | NC(=O)c1cc(S(=O)(=O)c2ccc(F)cc2CO)sc1NC(=O)c1ccccc1F [Compound 196, 5-(4-fluoro-2-(hydroxymethyl)phenylsulfonyl)-2-(2-fluorobenzamido) thiophene-3-carboxamide] |  | 5.68
20 | NC(=O)c1cc(S(=O)(=O)N2CCOCC2)sc1NC(=O)C1(O)CCC1 [Compound 199, 2-(1-hydroxycyclobutanecarboxamido)-5-(morpholinosulfonyl) thiophene-3-carboxamide] |  | 5.70
21 | NC(=O)c1cc(S(=O)(=O)N2CCC(F)(F)CC2)sc1NC(=O)C1(O)CCOCC1 [Compound 202, N-(3-carbamoyl-5-(4,4-difluoropiperidin-1-ylsulfonyl)thiophen-2-yl)-4-hydroxytetrahydro-2H-pyran-4-carboxamide] |  | 6.15
22 | COCCCN(C)S(=O)(=O)c1cc(C(N)=O)c(NC(=O)c2cc[nH]n2)s1 [Compound 204, N-(3-carbamoyl-5-(N-(3-methoxypropyl)-N-methylsulfamoyl)thiophen-2-yl)-1H-pyrazole-3-carboxamide] |  | 6.66
23 | NC(=O)c1cc(S(=O)(=O)N2CC(F)C2)sc1NC(=O)c1cc[nH]n1 [Compound 205, N-(3-carbamoyl-5-(3-fluoroazetidin-1-ylsulfonyl)thiophen-2-yl)-1H-pyrazole-3-carboxamide] |  | 5.94
24 | NC(=O)c1cc(S(=O)(=O)N2CCC2)sc1NC(=O)c1cc[nH]n1 [Compound 208, N-(5-(azetidin-1-ylsulfonyl)-3-carbamoylthiophen-2-yl)-1H-pyrazole-3-carboxamide] |  | 6.24

Next, values leading:

Row | pEC50 (CFTR ΔF508 mutant [1]) | pEC50 (CFTR ΔF508 mutant [2]) | Compound
25 | 6.96 | 6.97 | CCN(C)S(=O)(=O)c1cc(C(N)=O)c(NC(=O)c2ccc(C)s2)s1 [Compound 3, N-(3-carbamoyl-5-(N-ethyl-N-methylsulfamoyl)thiophen-2-yl)-5-methylthiophene-2-carboxamide]
26 | 6.87 | 7.03 | CCN(CC)S(=O)(=O)c1cc(C(N)=O)c(NC(=O)c2ccc(C)s2)s1 [Compound 4, N-(3-carbamoyl-5-(N,N-diethylsulfamoyl)thiophen-2-yl)-5-methylthiophene-2-carboxamide]
27 | 7.57 | 7.69 | Cc1c(S(=O)(=O)c2ccccc2)sc(NC(=O)c2cc[nH]n2)c1C(N)=O [Compound 101, N-(3-carbamoyl-4-methyl-5-(phenylsulfonyl)thiophen-2-yl)-1H-pyrazole-3-carboxamide]
28 | 7.26 | 7.42 | CCc1cc(C(=O)Nc2sc(S(=O)(=O)c3ccccc3)c(C)c2C(N)=O)n[nH]1 [Compound 103, N-(3-carbamoyl-4-methyl-5-(phenylsulfonyl)thiophen-2-yl)-5-ethyl-1H-pyrazole-3-carboxamide]
29 | 6.70 | 7.07 | NC(=O)c1cc(S(=O)(=O)c2ccc(F)cc2)sc1NC(=O)c1ccccc1F [Compound 111, 2-(2-fluorobenzamido)-5-(4-fluorophenylsulfonyl) thiophene-3-carboxamide]
30 |  | 5.84 | N#CC1CN(S(=O)(=O)c2cc(C(N)=O)c(NC(=O)c3ccccc3F)s2)C1 [Compound 176, 5-(3-cyanoazetidin-1-ylsulfonyl)-2-(2-fluorobenzamido)thiophene-3-carboxamide]
31 |  | 6.75 | NC(=O)c1cc(S(=O)(=O)N2CC(F)C2)sc1NC(=O)c1ccccc1F [Compound 177, 5-(3-fluoroazetidin-1-ylsulfonyl)-2-(2-fluorobenzamido)thiophene-3-carboxamide]
32 |  | 6.57 | COCCCN(C)S(=O)(=O)c1cc(C(N)=O)c(NC(=O)c2ccccc2F)s1 [Compound 186, 2-(2-fluorobenzamido)-5-(N-(3-methoxypropyl)-N-methylsulfamoyl)thiophene-3-carboxamide]
33 |  | 5.48 | NC(=O)c1cc(S(=O)(=O)N2CCOCC2)sc1NC(=O)C1(O)CCOCC1 [Compound 200, N-(3-carbamoyl-5-(morpholinosulfonyl)thiophen-2-yl)-4-hydroxytetrahydro-2H-pyran-4-carboxamide]
34 |  | 5.48 | CC(C)c1cc(C(=O)Nc2sc(S(=O)(=O)N3CCOCC3)cc2C(N)=O)c(O)c(C(C)C)c1 [Compound 201, 2-(2-hydroxy-3,5-diisopropylbenzamido)-5-(morpholinosulfonyl) thiophene-3-carboxamide]
35 |  | 5.48 | CC(C)(O)C(=O)Nc1sc(S(=O)(=O)N2CCOCC2)cc1C(N)=O [Compound 203, 2-(2-hydroxy-2-methylpropanamido)-5-(morpholinosulfonyl) thiophene-3-carboxamide]
36 |  | 6.50 | CS(=O)(=O)c1cc(C(N)=O)c(NC(=O)c2ccccc2O)s1 [Compound 211, 2-(2-hydroxybenzamido)-5-(methylsulfonyl)thiophene-3-carboxamide]
